From US20090196910A1, “Sustained-Release Preparation of Statin Drugs” (PFICKER PHARMACEUTICALS LTD., priority 2005, published 2009)

Columns and labels:
[1] = oral administration; cited from earlier work
[2] = system: carboxylate hydrolases in human blood; assay: Hydrolysis of 4-esters of statin drugs by ester hydrolases in vitro; type: in vitro ADME; settings: pH 6.5-7.5
Source text: As shown in the in vitro experiments, the esters of statin drugs formed at the 4-hydroxyl group can be transformed into statin drugs by many dominant human ester hydrolases at a pH of 6.5-7.5.

| SMILES | bio-availability [1] | transformation into the statin drug by ester hydrolases [2] |
| --- | --- | --- |
| CC(C)c1c(C(=O)Nc2ccccc2)c(-c2ccccc2)c(-c2ccc(F)cc2)n1CC[C@@H](O)C[C@@H](O)CC(=O)O [atovastatin] | no more than 14% |  |
| CCC(C)(C)C(=O)O[C@H]1C[C@@H](C)C=C2C=C[C@H](C)C(CC[C@@H]3C[C@@H](OC(C)=O)CC(=O)O3)C21 (some centres unmarked) [4-acetate of simvastatin] |  | readily transformed into simvastatin |
